PMC11470957, “Principles of paralog-specific targeted protein degradation engaging the C-degron E3 KLHDC2” (Nature Communications, 2024)
“And” between values parts separate entries of the source, which are not always exact repeats. Identical values can stand only once.

Assays:
[1] = system: KLHDC2, KLHDC3, KLHDC10, KLHDC1 E3 ligases; settings: ligand alone; Fig S5b, c
BRD3 = BRD3 (Homo sapiens, UniProt Q15059); assay: Western blot of BRD3 levels after cellular dosing
BRD4 = BRD4 (Homo sapiens, UniProt O60885); assay: Western blot of BRD4 levels after cellular dosing
[2] = system: BRD proteins in U2OS KO/rescue lysate; assay: Degradation in non-denaturing lysates of U2OS KO/rescue cells; settings: non-denaturing U2OS KO/rescue lysate 4mg/ml, 10 µM, 30° C
[3] = Fig S6b, MDA-MB468 Cells, 10 uM

Chain of BRD3 (Q15059 whole entry): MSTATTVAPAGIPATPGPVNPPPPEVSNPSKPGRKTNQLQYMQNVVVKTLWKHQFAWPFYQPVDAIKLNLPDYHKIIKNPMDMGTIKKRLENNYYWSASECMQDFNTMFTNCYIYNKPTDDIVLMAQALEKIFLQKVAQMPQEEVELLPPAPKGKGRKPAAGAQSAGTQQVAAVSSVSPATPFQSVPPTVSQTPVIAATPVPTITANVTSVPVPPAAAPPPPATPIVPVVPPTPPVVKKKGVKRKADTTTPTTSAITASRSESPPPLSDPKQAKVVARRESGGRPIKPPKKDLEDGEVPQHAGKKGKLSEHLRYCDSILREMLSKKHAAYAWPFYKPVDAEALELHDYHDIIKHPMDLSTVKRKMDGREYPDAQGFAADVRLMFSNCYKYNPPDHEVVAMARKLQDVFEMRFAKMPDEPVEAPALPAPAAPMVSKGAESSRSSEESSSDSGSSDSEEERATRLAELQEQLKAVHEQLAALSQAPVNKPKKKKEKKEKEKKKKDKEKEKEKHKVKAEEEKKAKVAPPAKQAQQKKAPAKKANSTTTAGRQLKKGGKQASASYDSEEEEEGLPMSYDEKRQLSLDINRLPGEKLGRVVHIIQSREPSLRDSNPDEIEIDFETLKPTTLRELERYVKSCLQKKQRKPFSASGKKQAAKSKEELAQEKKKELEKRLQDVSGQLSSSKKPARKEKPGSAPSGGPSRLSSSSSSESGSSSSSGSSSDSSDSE

SMILES: Cc1sc2c(c1C)C(c1ccc(Cl)cc1)=N[C@@H](CC(=O)N1CCN(CCOc3cccc4ccc(-c5nc(CC(=O)NCC(=O)O)cs5)cc34)CC1)c1nnc(C)n1-2 [SJ46421]
- inhibition of substrate ubiquitylation by Kelch family E3 ligases other than KLHDC2 [1]: largely inactive
- BRD3 level, Western blot quantification (DMSO = 100) (BRD3; Fig 6b, KO/Rescue, 5 uM): 107.446 and 99.4453
- BRD3 level, Western blot quantification (DMSO = 100) (BRD3; Fig 6b, U2OS, 5 uM): 111.974 and 117.271
- BRD3 level, Western blot quantification (DMSO = 100) (BRD3; Fig S6a, 293T cells, 2.5 uM): 78.3969 and 86.4266
- BRD3 level, Western blot quantification (DMSO = 100) (BRD3; Fig S6a, 293T cells, 5 uM): 73.4789 and 84.2355
- BRD3 level, Western blot quantification (DMSO = 100) (BRD3; [3]): 61.0904 and 82.4759
- BRD degradation activity in U2OS cells (BRD3; wild-type U2OS, 24 h dose, Fig 6b): inactive
- BRD4 level, Western blot quantification (DMSO = 100) (BRD4; Fig 6b, KO/Rescue, 5 uM): 89.649 and 113.548
- BRD4 level, Western blot quantification (DMSO = 100) (BRD4; Fig 6b, U2OS, 5 uM): 119.505 and 104.107
- BRD4 level, Western blot quantification (DMSO = 100) (BRD4; Fig S6a, 293T cells, 2.5 uM): 98.5503 and 107.435
- BRD4 level, Western blot quantification (DMSO = 100) (BRD4; Fig S6a, 293T cells, 5 uM): 86.1267 and 99.7257
- BRD4 level, Western blot quantification (DMSO = 100) (BRD4; [3]): 94.0762 and 99.1924
- degrader dependent decrease in BRD protein levels in lysate [2]: did not observe a degrader dependent decrease
